# According to PMC8153121, “N-Alkylation of Anthracycline Antibiotics by Natural Sesquiterpene Lactones as a Way to Obtain Antitumor Agents with Reduced Side Effects” (Biomedicines, 2021):
# Read-outs that look alike come from different tables or passages of the source.
# Tests used:
# [1] = system: RD (embryonic rhabdomyosarcoma); assay: MTT cell viability test, RD; format: cell-based, Human; settings: 72 h, read-out: IC50, RD
# Experimental: (§1) Human cell cultures of tumor origin (A549 (lung carcinoma), HCT116 (colon adenocarcinoma), MCF7 (breast cancer), RD (embryonic rhabdomyosarcoma)), and the line of non-transformed cells HEK293 (embryonic kidney) provided by the Laboratory of Tumor Cell Genetics at the N.N. Blokhin Russian Cancer Research Institute, as well as by the Institute of Cytology of the Russian Academy of Sciences, were grown in DMEM (Gibco, Scotland, UK) and MEM (Gibco, Scotland, UK) containing fetal calf serum (10% by volume) (ThermoFisher Scientific, Paisley, UK), L-glutamine (2 mM) (Gibco, Scotland, UK), and penicillin-streptomycin (1% by volume) (PanEco, Moscow, Russia).
# (§2) Cellular viability was determined by the MTT test. […] After 24 h of incubation, various concentrations of the test compounds dissolved in DMSO (≤1%) were added to the cell cultures, the solvent was added to the control wells in an equal volume, and then the cells were cultured under the same conditions for 72 h. After the incubation time, MTT (3-(4,5-dimethylthiazol-2-yl)-2,5-diphenyltetrazolium bromide, 5 mg/mL) was added to each well, and the plates were further incubated for 2 h (until a characteristic color appeared). Then, the formazan granules were dissolved in DMSO.
# (§3) Using a plate analyzer (Cytation3, BioTech Instruments Inc., USA), the optical density was determined at λ = 530 nm.
# [2] = system: HCT116 (colon adenocarcinoma); assay: MTT cell viability test, HCT116; format: cell-based, Human; settings: read-out: IC50, HCT116
# Experimental: as §1, §2, §3
# MCF7 (breast cancer) = assay: MTT cell viability test, MCF7; format: cell-based, Human; settings: read-out: IC50, MCF7
# Experimental: as §1, §2, §3
# A549 (lung carcinoma) = assay: MTT cell viability test, A549; format: cell-based, Human; settings: read-out: IC50, A549
# Experimental: as §1, §2, §3
# [3] = molecular target: T1, cytochrome-c-oxidase complex of the mitochondrial respiratory chain (IV) (Rattus norvegicus, UniProt P00406+P05503+P05505); assay: Respiratory chain complex IV, OCR of isolated rat heart mitochondria (Seahorse); format: biochemical; settings: isolated rat heart mitochondria 10 μg/well, compounds at 30 μM
# T1 construct: Rat heart mitochondria were isolated by differential centrifugation; from tissue; host or cells: rat heart mitochondria
# T1 sequence (P00406 whole entry, other chains not shown): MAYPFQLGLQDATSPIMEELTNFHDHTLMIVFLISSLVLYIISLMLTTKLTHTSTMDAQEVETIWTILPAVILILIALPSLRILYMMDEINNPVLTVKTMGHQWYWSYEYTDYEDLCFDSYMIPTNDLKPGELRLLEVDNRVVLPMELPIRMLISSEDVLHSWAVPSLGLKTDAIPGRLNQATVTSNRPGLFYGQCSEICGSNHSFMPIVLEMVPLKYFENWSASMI
# T1 sequence (P05505 whole entry, other chains not shown): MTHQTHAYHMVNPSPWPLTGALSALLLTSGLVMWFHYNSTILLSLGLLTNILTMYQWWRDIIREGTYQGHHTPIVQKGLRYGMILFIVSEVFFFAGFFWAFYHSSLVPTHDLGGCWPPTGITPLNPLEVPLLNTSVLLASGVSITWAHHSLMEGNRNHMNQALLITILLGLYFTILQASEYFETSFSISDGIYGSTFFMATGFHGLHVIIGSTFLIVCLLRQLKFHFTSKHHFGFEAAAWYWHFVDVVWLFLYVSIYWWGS
# Experimental: (§4) Rat heart mitochondria were isolated by differential centrifugation using ice-cold buffer containing KCl (120 mM) and HEPES (20 mM), pH = 7.4, and a trypsin inhibitor. The mitochondrial yield ranged from 5 to 10 mg/mL of protein in the heart sediment. Mitochondria were stored in plastic containers at 4 °C.
# (§5) The effect of the compounds on the functioning of the electron transport chain complexes was carried out using an Agilent Seahorse XF96e Analyzer (Seahorse Bioscience, Billerica, MA, USA) according to their ability to change the rate of oxygen uptake by isolated rat heart mitochondria (10 μg/well). The following modulators were used: activators of complex I of the electron transport chain, NADH dehydrogenase,—glutamate/malate; rotenone (2 μM) (Sigma Aldrich, Saint Louis, USA)—a tissue respiration blocker that stops the transfer of electrons from the reduced form of NADH to cytochrome b, was used as complex I inhibitor; potassium succinate ([…]) (Dia-M, Moscow, Russia), which is a substrate of complex II of the electron transport chain, made it possible to assess mitochondrial respiration mediated by succinate dehydrogenase; complex III (ubiquinol-cytochrome c-oxidoreductase) inhibitor—a blocker of cellular respiration antimycin A (Sigma Aldrich, Saint Louis, USA), as well as ascorbate/TMPD (0.5 μM) (Sigma Aldrich, Saint Louis, USA), allowed us to evaluate the cytochrome-c-oxidase mediated respiration of organelles.
# rat heart mitochondria = assay: Mitochondrial swelling; format: biochemical; settings: rat heart mitochondria 0.5 mg/mL, compounds at 100 μM, Ca2+ 25 μM
# Experimental: as §4
# Mitochondrial swelling was recorded by the light transmission of the rat heart mitochondrial suspension at λ = 540 nm using a Victor 3 plate analyzer (Perkin Elmer, Germany). The swelling rate was estimated as △A540/min and was calculated as the tangent of the angle of the steepest dependence curve part △A540 versus time.
# [4] = system: HEK293 (embryonic kidney); assay: MTT cell viability test, non-transformed HEK293; format: cell-based, Human; settings: read-out: IC50, HEK293
# Experimental: as §1, §2, §3
# [5] = molecular target: T2, complex II of the electron transport chain (Rattus norvegicus, UniProt P21913+Q641Z9+Q6PCT8+Q920L2); assay: Respiratory chain complex II, OCR of isolated rat heart mitochondria (Seahorse); format: biochemical; settings: isolated rat heart mitochondria 10 μg/well, compounds at 30 μM
# T2 construct: Rat heart mitochondria were isolated by differential centrifugation; from tissue; host or cells: rat heart mitochondria
# T2 sequence (Q920L2 35-656): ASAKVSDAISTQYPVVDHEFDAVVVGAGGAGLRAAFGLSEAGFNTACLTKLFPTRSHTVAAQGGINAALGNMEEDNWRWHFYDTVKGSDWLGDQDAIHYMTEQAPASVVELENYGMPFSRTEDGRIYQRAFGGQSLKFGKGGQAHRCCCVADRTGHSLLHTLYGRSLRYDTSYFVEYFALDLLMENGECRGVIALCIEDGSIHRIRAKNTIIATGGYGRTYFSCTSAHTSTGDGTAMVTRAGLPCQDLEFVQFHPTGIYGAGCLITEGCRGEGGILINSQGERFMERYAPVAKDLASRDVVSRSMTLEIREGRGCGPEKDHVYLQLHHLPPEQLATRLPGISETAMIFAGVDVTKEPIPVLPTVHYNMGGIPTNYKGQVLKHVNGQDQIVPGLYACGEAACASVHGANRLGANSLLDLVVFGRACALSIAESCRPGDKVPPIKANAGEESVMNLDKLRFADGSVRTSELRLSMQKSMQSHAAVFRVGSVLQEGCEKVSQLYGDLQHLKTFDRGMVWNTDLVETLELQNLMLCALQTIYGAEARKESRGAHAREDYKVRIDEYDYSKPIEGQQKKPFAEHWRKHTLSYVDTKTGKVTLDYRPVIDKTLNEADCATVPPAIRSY
# T2 sequence (P21913 31-282): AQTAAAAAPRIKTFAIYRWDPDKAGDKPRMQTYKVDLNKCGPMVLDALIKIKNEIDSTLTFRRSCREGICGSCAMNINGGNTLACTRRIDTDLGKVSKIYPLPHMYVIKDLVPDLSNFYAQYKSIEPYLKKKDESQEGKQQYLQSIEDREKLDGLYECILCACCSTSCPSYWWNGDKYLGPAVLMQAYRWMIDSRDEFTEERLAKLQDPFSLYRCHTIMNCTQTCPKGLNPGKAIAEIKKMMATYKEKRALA
# T2 sequence (Q641Z9 30-169 limits assumed): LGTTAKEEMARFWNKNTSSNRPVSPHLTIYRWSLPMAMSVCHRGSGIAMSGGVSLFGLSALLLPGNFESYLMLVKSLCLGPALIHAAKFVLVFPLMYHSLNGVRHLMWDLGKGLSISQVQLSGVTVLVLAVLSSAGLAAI
# T2 sequence (Q6PCT8 57-159): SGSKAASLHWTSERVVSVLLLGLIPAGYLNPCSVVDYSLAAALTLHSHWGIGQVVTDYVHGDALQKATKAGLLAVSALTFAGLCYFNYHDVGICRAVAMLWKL
# Experimental: as §4, §5
# [6] = MTT, 72 h, non-transformed cells
# [7] = Homo sapiens, HCT-116, 72 h, MTT, 72 h
# [8] = Homo sapiens, MCF7, 72 h, MTT, 72 h
# [9] = Homo sapiens, A549, 72 h, MTT, 72 h
# [10] = Homo sapiens, HEK293, 72 h, MTT, 72 h, non-transformed cells
SMILES,IC50 ([1]; MTT),"IC50 ([2]; MTT, 72 h)","IC50 (MCF7 (breast cancer); MTT, 72 h)","IC50 (A549 (lung carcinoma); MTT, 72 h)","Work of Respiratory Chain Complexes, % Decrease in OCR of Control, IV [3]","Mitochondrial Swelling, % of Ca2+-Induced Swelling (rat heart mitochondria)","IC50 [4, 6]","Work of Respiratory Chain Complexes, % Decrease in OCR of Control, II [5]","IC50 ([1]; Homo sapiens, MTT)","IC50 [2, 7]",IC50 (MCF7 (breast cancer); [8]),IC50 (A549 (lung carcinoma); [9]),"IC50 [4, 10]",also measured
COc1cccc2c1C(=O)c1c(O)c3c(c(O)c1C2=O)C[C@@](O)(C(C)=O)C[C@@H]3O[C@H]1C[C@H](NC[C@H]2C(=O)O[C@@H]3C[C@@]4(C)CCC=C(C)C4=C[C@@H]32)[C@H](O)[C@H](C)O1,,,,,,,,,,,,,,melting point: 152 to 158 °C
COc1cccc2c1C(=O)c1c(O)c3c(c(O)c1C2=O)CC(O)(C(=O)CO)CC3OC1CC(NCC2C(=O)OC3CC4(C)CCCC5(C)OC45CC32)C(O)C(C)O1 (mixture of isomers) [Compound 6a],1.18 ± 0.01 µM,0.25 ± 0.04 µM,2.94 ± 0.02 µM,0.88 ± 0.11 µM,40.50 ± 4.05%,54.22 ± 5.49%,0.98 ± 0.23 µM,,,,,,,
COc1cccc2c1C(=O)c1c(O)c3c(c(O)c1C2=O)CC(O)(C(C)=O)CC3OC1CC(NCC2C(=O)OC3CC4(C)CCCC5(C)OC45CC32)C(O)C(C)O1 (mixture of isomers) [Compound 6b],0.41 ± 0.02 µM,0.26 ± 0.01 µM,1.47 ± 0.04 µM,0.56 ± 0.01 µM,41.69 ± 2.13%,— (“—” indicates activity absence for compounds (≤10%) in a particular test),3.68 ± 0.16 µM,26.74 ± 4.56%,,,,,,
"C=C1CCC[C@]2(C)C[C@H]3OC(=O)C(=C)[C@H]3CC12 (stereo partly shown) [Compound 1, isoalantholactone, reference compound]",,,,,,,,,10.4 ± 0.79 µM,11.3 ± 0.27 µM,17.5 ± 0.6 µM,32 ± 3.24 µM,74.03 ± 0.51 µM,
C=C1CCCC2(C)CC3OC(=O)C(CNC4CC(OC5CC(O)(C(=O)CO)Cc6c(O)c7c(c(O)c65)C(=O)c5c(OC)cccc5C7=O)OC(C)C4O)C3CC12 (stereo not shown) [Compound 1a],2.41 ± 0.03 µM,2.81 ± 0.05 µM,11.1 ± 0.17 µM,2.21 ± 0.06 µM,24.52 ± 7.61%,— (“—” indicates activity absence for compounds (≤10%) in a particular test),19.8 ± 0.42 µM,27.61 ± 5.71%,,,,,,
C=C1CCCC2(C)CC3OC(=O)C(CNC4CC(OC5CC(O)(C(C)=O)Cc6c(O)c7c(c(O)c65)C(=O)c5c(OC)cccc5C7=O)OC(C)C4O)C3CC12 (stereo not shown) [Compound 1b],0.96 ± 0.02 µM,0.28 µM,3.95 ± 0.03 µM,0.93 ± 0.06 µM,— (“—” indicates activity absence for compounds (≤10%) in a particular test),— (“—” indicates activity absence for compounds (≤10%) in a particular test),3.43 ± 0.04 µM,— (“—” indicates activity absence for compounds (≤10%) in a particular test),,,,,,
"C=C1C(=O)O[C@@H]2C[C@@]3(C)CCC[C@H](C)C3=C[C@H]12 [Compound 2, alantolactone, reference compound]",,,,,,,,,5.48 ± 0.2 µM,10.57 ± 0.04 µM,13.2 ± 0.93 µM,36.7 ± 1.43 µM,36.47 ± 0.07 µM,
COc1cccc2c1C(=O)c1c(O)c3c(c(O)c1C2=O)C[C@@](O)(C(=O)CO)C[C@@H]3O[C@H]1C[C@H](NC[C@H]2C(=O)O[C@@H]3C[C@@]4(C)CCC[C@H](C)C4=C[C@@H]32)[C@H](O)[C@H](C)O1 [Compound 2a],2.67 ± 0.11 µM,4.55 ± 0.03 µM,26.8 ± 0.65 µM,3.29 ± 0.11 µM,20.45 ± 5.85%,31.51 ± 8.35%,29.83 ± 0.18 µM,39.11 ± 4.05%,,,,,,
"C=C1C(=O)O[C@@H]2C[C@@]3(C)CCCC(C)=C3C[C@H]12 [Compound 3, alloalantholactone, reference compound]",,,,,,,,,8.82 ± 0.14 µM,34.5 ± 3.51 µM,17.9 ± 0.68 µM,23.1 ± 1.18 µM,35.9 ± 0.48 µM,
"C=C1C(=O)OC2CC3(C)CCCC4(CO4)C3CC12 (stereo not shown) [Compound 4, epoxy-isoalantholactone, reference compound]",,,,,,,,,18.6 ± 0.21 µM,21.4 ± 0.32 µM,31.87 ± 0.14 µM,83.51 ± 0.26 µM,106 ± 4.13 µM,
"C=C1C(=O)O[C@@H]2C[C@@]3(C)CCC[C@H](C)[C@@]34O[C@H]4[C@H]12 [Compound 5, epoxyalantholactolactone, reference compound]",,,,,,,,,4.81 ± 0.12 µM,5.12 ± 0.05 µM,11.4 ± 0.32 µM,21.5 ± 0.75 µM,38.1 ± 1.08 µM,
COc1cccc2c1C(=O)c1c(O)c3c(c(O)c1C2=O)CC(O)(C(C)=O)CC3OC1CC(NCC2C(=O)OC3CC4(C)CCCC(C)C45OC5C32)C(O)C(C)O1 (stereo not shown) [Compound 5b],0.8 µM,1.3 ± 0.02 µM,1.84 ± 0.06 µM,1.19 ± 0.02 µM,21.56 ± 3.66%,— (“—” indicates activity absence for compounds (≤10%) in a particular test),18.19 ± 0.18 µM,— (“—” indicates activity absence for compounds (≤10%) in a particular test),,,,,,
"C=C1C(=O)OC2CC3(C)CCCC4(C)OC34CC12 (stereo not shown) [Compound 6, epoxyalloalantholactone, reference compound]",8.77 ± 0.01 µM,9.75 ± 0.57 µM,24 ± 0.8 µM,50.3 ± 1.11 µM,,,18.5 ± 0.2 µM,,16.8 ± 0.28 µM,10.8 ± 0.18 µM,38.6 ± 0.86 µM,61.7 ± 2.4 µM,29.77 ± 0.05 µM,
"COc1cccc2c1C(=O)c1c(O)c3c(c(O)c1C2=O)C[C@@](O)(C(=O)CO)C[C@@H]3O[C@H]1C[C@H](NC[C@H]2C(=O)O[C@@H]3CC4=CCC[C@H](C)[C@@]4(C)[C@@H](O)[C@@H]32)[C@H](O)[C@H](C)O1 [Compound 7a, (8S,10S)-6,8,11-Trihydroxy-10-(((2R,4S,5S,6S)-5-hydroxy-4-((((3S,3aS,4S,4aR,5S,9aR)-4-hydroxy-4a,5-dimethyl-2-oxo-2,3,3a,4,4a,5,6,7,9,9a-decahydronaphtho[2,3-b]furan-3-yl)methyl)amino)-6-methyltetrahydro-2H-pyran-2-yl)oxy)-8-(2-hydroxyacetyl)-1-methoxy-7,8,9,10-tetrahydrotetracene-5,12-dione]",,,,,38.16 ± 0.84%,— (“—” indicates activity absence for compounds (≤10%) in a particular test),,33.21 ± 3.84%,,,,,,"IC50 ([1]; Homo sapiens): 4.22 ± 0.1 µM; IC50 ([2]; Homo sapiens, HCT-116, 72 h): 0.92 µM; melting point: 170 to 175 °C; IC50 (MCF7 (breast cancer); Homo sapiens, MCF7, 72 h): 6.03 ± 0.11 µM; IC50 (A549 (lung carcinoma); Homo sapiens, A549, 72 h): 5.43 ± 0.16 µM; IC50 ([4]; Homo sapiens, HEK293, 72 h): 10.5 ± 0.88 µM"
"C=C1C(=O)O[C@@H]2C[C@@]3(C)CCC=C(C)C3=C[C@H]12 [Compound 8, alanthodiene, reference compound]",,,,,,,,,,,,,,"IC50 ([1]; Homo sapiens): 4.94 ± 0.09 µM; IC50 ([2]; Homo sapiens, HCT-116, 72 h): 4.99 ± 0.06 µM; IC50 (MCF7 (breast cancer); Homo sapiens, MCF7, 72 h): 4.31 ± 0.02 µM; IC50 (A549 (lung carcinoma); Homo sapiens, A549, 72 h): 59.9 ± 2.26 µM; IC50 ([4]; Homo sapiens, HEK293, 72 h): 9.07 ± 0.25 µM"
